Residue numbers refer to the chain shown, from its start. “Also recorded” adds a separate entry of the source. Like-named read-outs stand apart in the source and are kept apart here.
Assays:
[1] = molecular target: T1, AR T878A (Homo sapiens, UniProt P10275, T878A); experiment: cell-based; type: cell-based
T1 construct: LNCaP cells expressing AR T878A; endogenous in cells; host or cells: LNCaP-luc (LNCaP stably carrying the Cignal Lenti AR Reporter)
T1 sequence (P10275 1-920 T878A): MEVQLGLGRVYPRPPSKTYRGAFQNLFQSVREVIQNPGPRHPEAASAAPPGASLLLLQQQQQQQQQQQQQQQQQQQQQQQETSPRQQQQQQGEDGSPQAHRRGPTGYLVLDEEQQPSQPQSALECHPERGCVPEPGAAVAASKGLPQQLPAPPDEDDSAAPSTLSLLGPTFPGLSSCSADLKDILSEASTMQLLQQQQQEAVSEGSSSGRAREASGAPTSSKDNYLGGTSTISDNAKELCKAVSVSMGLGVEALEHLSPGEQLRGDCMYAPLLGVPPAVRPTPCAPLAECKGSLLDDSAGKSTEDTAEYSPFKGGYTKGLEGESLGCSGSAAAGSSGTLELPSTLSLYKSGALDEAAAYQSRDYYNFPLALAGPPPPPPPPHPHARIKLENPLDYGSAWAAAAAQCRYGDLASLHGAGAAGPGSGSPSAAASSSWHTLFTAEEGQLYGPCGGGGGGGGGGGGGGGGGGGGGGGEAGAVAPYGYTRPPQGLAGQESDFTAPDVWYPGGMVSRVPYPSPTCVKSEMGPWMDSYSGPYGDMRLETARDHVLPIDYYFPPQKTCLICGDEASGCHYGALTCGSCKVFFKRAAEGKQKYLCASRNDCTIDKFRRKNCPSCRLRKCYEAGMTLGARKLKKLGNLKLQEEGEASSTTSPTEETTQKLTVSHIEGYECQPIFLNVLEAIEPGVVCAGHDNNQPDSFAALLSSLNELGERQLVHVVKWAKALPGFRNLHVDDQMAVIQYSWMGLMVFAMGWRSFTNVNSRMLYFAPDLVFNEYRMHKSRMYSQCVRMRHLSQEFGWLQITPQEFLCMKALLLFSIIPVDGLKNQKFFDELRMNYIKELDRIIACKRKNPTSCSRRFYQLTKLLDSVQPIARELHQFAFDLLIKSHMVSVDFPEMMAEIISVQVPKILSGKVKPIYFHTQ
From the text: We generated a LNCaP cell line stably expressing luciferase controlled by androgen response elements (ARE-luciferase).
Cell Culture and Treatments. The LNCaP cell line were obtained from ATCC, cultured in RPMI1640 (Corning) supplemented with 10% heat-inactivated GemCell bovine serum (Gemini Bio-Products) and Penicillin-Streptomycin (Gemini Bio-Products). Cell lines stably expressing ARE-luciferase (LNCaP-luc) was generated using Cignal Lenti AR Reporter (Qiagen) and was continuously cultured with 500 ng/mL Puromycin (Gibco) for positive selection. Cells were maintained at 37° C. in a humidified incubator with 5% carbon dioxide. All cell lines were authenticated using NIST approved short tandem repeat (STR) DNA profiling performed by the University of Arizona Genetics Core and routinely tested negative for mycoplasma.
Luciferase assay. LNCaP-luc cells were seeded in clear flat bottom white polystyrene 96-well plates (Corning) at a density of 12,000 cells/well. […] Dose-response curves were fit using the delta method and t-distribution (n=1). Compounds are tested up to 10 μM.

[2] = tested on: LNCaP cells; experiment: LNCaP cell viability assay (CellTiter-Glo); type: cell-based; details: 1 and 10 μM drug + 60 pM R1881, 5 days
Method: LNCaP cell viability assay. Cells were seeded into 96-well fibronectin coated (1 ug/cm^2) plates (CellCarrier, PerkinElmer) at a density of 5,000 cells/well. […] Drug-treated cells were lysed with CellTiter-Glo 3D Cell Viability Assay (Promega) and transferred to white 96-well plates (Corning). Luminescence was measured utilizing GloMax 96 Microplate Luminometer (Promega). Analysis was conducted in the R statistical environment (v 3.6.0). […] Visualizations were facilitated by the ggplot2 package (v3.2.1), with standard error (S.E.) shown where appropriate.

[3] = tested on: VCaP cells; experiment: VCaP viability assay (CellTiter-Glo); type: cell-based
Method: (§1) PC3 and VCaP cell lines were obtained from ATCC and cultured as recommended. Generation and culture of PC3 GFP-AR cells were described previously (14). ARE-luciferase cells were generated using Cignal Lenti AR Reporter (Qiagen). Cell lines were authenticated using NIST-approved short tandem repeat DNA profiling and tested negative for mycoplasma. Drug treatments were conducted after overnight culture in phenol red-free media supplemented with charcoal:dextran stripped FBS.
(§2) Luminometer Assays. For ARE-luciferase, luciferase substrate was added to lysed cells after 24-h treatment. For viability, cells were lysed with CellTiter-Glo 3D Cell Viability Assay (Promega) after 6 d of treatment. Measurements were performed in 96-well plates (Corning) using a GloMax 96 Microplate Luminometer (Promega).

[4] = Microsome stability assay; type: in vitro ADME, human; details: for toxic metabolite BMS-501949 detected in LCMS / active metabolite detected in LCMS: 10 μM drug; for toxic metabolite BMS-501949 detected in LCMS: 8 h incubation, o-fluoro-BMS-501949 for EITM-1707; for active metabolite detected in LCMS: Unnamed metabolite (predicted active) for EITM compounds, BMS-570511 for BMS-641988, 8 h; for half-life at 1 μM / microsomal CLint at 1 μM: human, pooled human liver microsomes, pH 7.4, liver microsomes; for half-life at 1 μM: 1 μM drug, read-out: T½; for microsomal CLint at 1 μM: read-out: rate of intrinsic clearance
Method: Microsome stability assays. In vitro metabolism was determined as described previously. Specifically, to measure metabolism of parent compounds, the higher throughput protocol was applied, in which 0.5 mg/ml pooled human liver microsomes (Sigma) were mixed with 1 μM drugs and phosphate buffer (0.1 M, pH 7.4) in 96-well plates. Enzymatic reactions were started by adding 1 mM NADPH (Sigma Aldrich) followed by incubation at 37° C. Fractions were quenched by transfer to ice-cold acetonitrile after the indicated incubation times. Samples were analyzed using liquid chromatography-mass spectrometry (LC/MS-MS). Rates of intrinsic clearance were determined from the amount of the parent compound consumed per min per mg of microsomal protein as described previously. To analyze accumulating metabolites, the basic protocol was used, and microsomes were incubated with 10 μM drugs for 8 h.

[5] = tested on: AR-regulated genes in VCaP cells; experiment: RT-qPCR array of AR target genes in VCaP cells; type: cell-based; details: 82 AR target genes, vs NTC and DHT
Method: (§3) To test for corresponding transcriptional activation, we performed assays in cells expressing ARE-luciferase. […] Next, we examined gene expression in VCaP cells, a hormone-responsive but independent model of CRPC highly expressing AR.
RT-qPCR Array. RNA was isolated using the Illustra RNAspin Mini Kit (GE Healthcare). RNA was transcribed to cDNA using RT2 First Strand Kit (Qiagen). RT-qPCR was performed using Biorad CFX Connect on a RT2 Profiler PCR Array Human Androgen Receptor Signaling Targets (Qiagen).

[6] = tested on: AR; experiment: ARE-luciferase assay in cells expressing ARE-luciferase (enantiomer pairs); type: cell-based; details: 10 μM mixture + 1 nM R1881, 24 h
From the text: as §3, §1, §2

[7] = molecular target: T2, GFP-AR (Homo sapiens, UniProt P10275); experiment: Confocal microscopy of PC3 GFP-AR cells (nuclear hyperspeckling); type: cell-based; details: 10 μM enantiomer 180 min, 1 nM R1881 90 min
T2 construct: expressed in transfected cells; host or cells: PC3
T2 sequence (P10275 1-920): T1 sequence (P10275 1-920 T878A) with A878T
Method: Initial compound testing was performed with PC3 GFP-AR cells and confocal microscopy. First, we tested purified BMS enantiomers (FIG. 6A).
as §1
Confocal Microscopy. PC3 GFP-AR cells were seeded and stained overnight with SiR-DNA ([…]).

Row | SMILES | AR agonism / antagonism in LNCaP ARE-luciferase, in words [1] | EC50 [1] [nM] | Emax ([1]; LNCaP) [%] | LNCaP proliferation / viable cells, in words [2] | R1881-induced growth, in words ([3]; 10 μM drug + 1 nM R1881, 6-d treatment) | IC50 ([3]; Homo sapiens, VCaP) [nM] | toxic metabolite BMS-501949 detected in LCMS [4] | toxic metabolite BMS-501949 detected in LCMS ([4]; listed as (R)-EITM-1707) | active metabolite detected in LCMS [4] | half-life at 1 μM [4] [h] | microsomal CLint at 1 μM [4] [µL/min/mg] | AR-dependent gene expression, in words [5] | (S)-enantiomer contamination that halved the drug effect, ARE-luciferase ([6]; 95% CI (2.1%, 2.9%)) [%] | (S)-enantiomer contamination that canceled out the antagonist effect, ARE-luciferase ([6]; 95% CI (6.0%, 12.0%)) [%] | ED50 [1] | Emax [1] | nuclear hyperspeckling, in words [7]
1 | CC(O)c1cc(C(=O)N[C@@H]2C[C@@]3(C)O[C@]2(C)[C@@H]2C(=O)N(c4ccc(C#N)c(C(F)(F)F)c4F)C(=O)[C@@H]23)n[nH]1 (stereo partly drawn) [EITM-1707, N-((3aR,4R,5R,7R,7aS)-2-(4-cyano-2-fluoro-3-(trifluoromethyl)phenyl)-4,7-dimethyl-1,3-dioxooctahydro-1H-4,7-epoxyisoindol-5-yl)-5-(1-hydroxyethyl)-1H-pyrazole carboxamide] | pure antagonists | 940 | 13 | inhibit LNCaP proliferation; also recorded: inhibited the growth of LNCaP prostate cancer cells | visibly suppressed R1881-induced growth | 410 | not detected | no | yes | 0.788 | 10.3 | down-regulated AR-dependent gene expression |  |  |  |  | 
2 | CC(O)c1cc(C(=O)N[C@H]2C[C@]3(C)O[C@@]2(C)[C@H]2C(=O)N(c4ccc(C#N)c(C(F)(F)F)c4F)C(=O)[C@H]23)n[nH]1 (stereo partly drawn) [(S)-EITM-1707, N-((3aS,4S,5S,7S,7aR)-2-(4-cyano-2-fluoro (trifluoromethyl)phenyl)-4,7-dimethyl-1,3-dioxooctahydro-1H-4,7-epoxyisoindol-5-yl)-5-(1-hydroxyethyl)-1H-pyrazole-3-carboxamide] |  |  |  |  |  |  |  |  |  |  |  | rescued the castration phenotype, mimicking DHT |  |  |  |  | 
3 | C[C@@]12O[C@@](C)(C[C@@H]1NC(=O)c1cc[nH]n1)[C@@H]1C(=O)N(c3ccc(C#N)c(C(F)(F)F)c3)C(=O)[C@@H]12 [(S)-EITM-1702, N-((3aS,4S,5S,7S,7aR)-2-(4-cyano-3-(trifluoromethyl)phenyl)-4,7-dimethyl-1,3-dioxooctahydro-1H-4,7-epoxyisoindol-5-yl)-1H-pyrazole-3-carboxamide] |  |  |  |  |  |  |  |  |  |  |  |  | 2.5 | 9 |  |  | 
4 | CCS(=O)(=O)N[C@@H]1C[C@@]2(C)O[C@]1(C)[C@@H]1C(=O)N(c3ccc(C#N)c(C(F)(F)F)c3)C(=O)[C@@H]12 [BMS-641988, N-((3aR,4R,5R,7R,7aS)-2-(4-cyano-3-(trifluoromethyl)phenyl)-4,7-dimethyl-1,3-dioxooctahydro-1H-4,7-epoxyisoindol-5-yl)ethanesulfonamide, reference compound] | potent agonist in LNCaP cells; also recorded: induced ARE-luciferase without addition of R1881 | 94 ± 22 |  | promoted proliferation |  |  | accumulated and yes |  | yes | 1.44 | 10.1 |  |  |  | agonist | agonist | inhibited R1881-induced hyperspeckling
